Common to all, as to test: NCI-60 cell line screen, 48 h
For experiment [1], the system named is NCI-H23.
Experiment [2] deals with U-251.
In experiment [3] the test system is TK-10.
Experiment [4] relates to SNB-75.
Experiment [5] relates to RPMI-8226.
The test system of experiment [6] is OVCAR-4.
Experiment [7] has as its system K562.
Experiment [8] concerns LOX IMVI.
Experiment [9] relates to NCI-H522.
The test system of experiment [10] is A498.
Experiment [11] concerns SR.
In experiment [12] the test system is PC-3.
Experiment [13] has as its system HOP-62.
Experiment [14] deals with T47D.
Experiment [15] has as its system NCI/ADR-RES.
For experiment [16], the system named is HCC 2998.
The test system of experiment [17] is SW-620.
In experiment [18] the test system is A549.
Experiment [19] deals with BT-549.

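Method: 48-hour compound exposure of cells in 96-well plates, five concentrations, linear interpolation of endpoints. GI50 = concentration required for 50% inhibition of growth.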 The source made the active and inactive calls. Rule as the data show it: active = GI50 up to about 1.1 µM and inactive = higher.

For the molecule `COC(=O)/C=C\c1ccc2c(c1)CC1(C2)Cc2ccc(/C=C/C(=O)OC)cc2C1` (stereo not given), the GI50 in experiment [1] is > 31.6 µM (inactive); in experiment [2] it was 20.7 µM (inactive); in experiment [3] it was > 31.6 µM (inactive); in experiment [4], 1.09 µM (active); in experiment [5], > 31.6 µM (inactive); in experiment [6] it was 22.8 µM (inactive). The GI50 is > 31.6 µM (inactive) in experiment [7]; > 31.6 µM (inactive) in [8]; 17.4 µM (inactive) in experiment [9]; > 10 µM (inactive) in [10]; 5.57 µM (inactive) in experiment [11]; > 31.6 µM (inactive) in experiment [12]. Besides, the GI50 in [13] was 15.2 µM (inactive); in experiment [14], > 31.6 µM (inactive); in experiment [15] it was > 31.6 µM (inactive); in [16] it was > 31.6 µM (inactive); in experiment [17], > 100 µM (inactive); in experiment [18] it was > 31.6 µM (inactive).
With `COc1ccccc1Nc1nc(NNC(=O)Cc2ccccc2)nc(NNC(=O)c2ccncc2)n1`, the GI50 in experiment [1], in experiment [2], in experiment [3], in [4], in [5] and in experiment [6] was > 10 µM (inactive) throughout. Also, the GI50 in experiment [7], in [8], in [11], in [13], in experiment [14] and in [19] was > 10 µM (inactive) in each case. In addition, the GI50 in experiment [15], in experiment [16], in experiment [17] and in [18] was > 10 µM (inactive) in each case.
Turning to `CC(C)(C)OC(=O)C1=C(C(=O)OC(C)(C)C)SC2(S1)C(C(=O)OC(C)(C)C)=C(C(=O)OC(C)(C)C)Sc1c2ssc1=O`, the GI50 in experiment [1] was 95.1 µM (inactive); in [2] it was 49.1 µM (inactive); in experiment [3], > 100 µM (inactive); in experiment [5], 48.1 µM (inactive); in [6] it was 24.6 µM (inactive); in experiment [7] it was 41.3 µM (inactive). For the same molecule, the GI50 in [8] was 34.7 µM (inactive); in experiment [9], 49.3 µM (inactive); in experiment [10], > 100 µM (inactive); in [12], 41 µM (inactive); in experiment [13] it was 64.9 µM (inactive); in experiment [14], 61 µM (inactive). For the same molecule, the GI50 in experiment [19] was 67 µM (inactive); in experiment [15] it was > 100 µM (inactive); in [16], > 100 µM (inactive); in experiment [17], 26.4 µM (inactive); in experiment [18] it was 72.3 µM (inactive).
Regarding `COc1ccc(-c2cc(O)c3cc(OC)c(OC)cc3n2)cc1OC`, the GI50 in experiment [1] was > 100 µM (inactive); in [2], > 100 µM (inactive); in experiment [3], > 100 µM (inactive); in experiment [4] it was 37.2 µM (inactive); in experiment [5] it was > 100 µM (inactive); in experiment [6], > 100 µM (inactive). The GI50 in experiment [7], in [8], in experiment [9], in [10], in experiment [11] and in experiment [12] was > 100 µM (inactive) throughout. For the same molecule, the GI50 was 37.7 µM (inactive) in experiment [13]; > 100 µM (inactive) in [19]; > 100 µM (inactive) in [15]; > 100 µM (inactive) in [16]; > 100 µM (inactive) in experiment [17]; > 100 µM (inactive) in [18].
Take `COc1ccccc1/N=N/C(=N/NC(=O)c1ccc(C)cc1)c1ccc(N(CCC#N)CCC#N)cc1OC`: the GI50 in experiment [1] is 32.4 µM (inactive); in [2] it was 32.5 µM (inactive); in experiment [3], 68.5 µM (inactive); in experiment [5], 14 µM (inactive); in experiment [6], 31.9 µM (inactive); in experiment [7], 31.3 µM (inactive). Further, the GI50 was 33.4 µM (inactive) in experiment [8]; 33.7 µM (inactive) in experiment [9]; 22.2 µM (inactive) in [10]; 26.5 µM (inactive) in experiment [12]; 40.5 µM (inactive) in experiment [13]; 18.7 µM (inactive) in experiment [14]. The GI50 in [19] is 32.3 µM (inactive); in experiment [15], > 100 µM (inactive); in experiment [16], 34.2 µM (inactive); in [17], 38.1 µM (inactive); in experiment [18] it was 33.5 µM (inactive).
Take `C=C1C(=O)O[C@H]2C[C@@]3(COC(C)=O)C=COC=C(COC(=O)C(C)C)C3CC12` (stereo not given in full): the GI50 in experiment [1] is > 100 µM (inactive); in [2], 29.4 µM (inactive); in experiment [3], > 100 µM (inactive); in experiment [4], 12.2 µM (inactive); in experiment [5], 21.5 µM (inactive); in experiment [7] it was 31.6 µM (inactive). Moreover, the GI50 is 45.2 µM (inactive) in experiment [8]; 60 µM (inactive) in [9]; 25.9 µM (inactive) in experiment [11]; 35.3 µM (inactive) in experiment [12]; > 100 µM (inactive) in [13]; > 100 µM (inactive) in [19]. Further, the GI50 was > 100 µM (inactive) in experiment [15], 51.4 µM (inactive) in [16], 46.1 µM (inactive) in experiment [17] and > 100 µM (inactive) in [18].
`CO/C=C(/C(=O)OC)c1ccccc1Oc1c(F)c(F)c(F)c(F)c1F`: the GI50 is 37.7 µM (inactive) in experiment [1]; 44.7 µM (inactive) in experiment [2]; 28.5 µM (inactive) in experiment [3]; 16.8 µM (inactive) in experiment [5]; 24.4 µM (inactive) in experiment [6]; 38.7 µM (inactive) in experiment [7]. Moreover, the GI50 in [8] is 32.4 µM (inactive); in experiment [10], 36.7 µM (inactive); in [12], 34.8 µM (inactive); in experiment [13], 53.6 µM (inactive); in [14], 21.2 µM (inactive); in experiment [19] it was > 100 µM (inactive). Moreover, the figures for the GI50 in experiment [15], in experiment [16] and in experiment [18] were 40.7 µM (inactive), 36.7 µM (inactive) and 34.8 µM (inactive), respectively.
As to `COC1=CC(=O)c2c(O)ccc(O)c2C1=O`, the GI50 is 2.64 µM (inactive) in experiment [1]; 13.1 µM (inactive) in experiment [2]; 14.7 µM (inactive) in [3]; 1.91 µM (inactive) in experiment [4]; 9.2 µM (inactive) in [5]; 13.6 µM (inactive) in [6]. The GI50 in experiment [7] was 6.68 µM (inactive); in experiment [9], 11.5 µM (inactive); in [10], 17.8 µM (inactive); in experiment [12], 18.5 µM (inactive); in experiment [13] it was 2.19 µM (inactive); in experiment [14], 18.1 µM (inactive). In addition, the GI50 in [19] was 2.44 µM (inactive); in experiment [15] it was 19.8 µM (inactive); in [16], 4.49 µM (inactive); in experiment [17], 3.85 µM (inactive); in experiment [18] it was 1.98 µM (inactive).
For `CC(C)CNC(=O)CCc1cccc2c1oc1c(CCN)cccc12`, the GI50 in experiment [1] was 12.5 µM (inactive); in experiment [2], 5.85 µM (inactive); in experiment [4] it was 5.62 µM (inactive); in [6], 18 µM (inactive); in [7], 1.98 µM (inactive); in experiment [8], 12.5 µM (inactive). For the same molecule, the GI50 in experiment [9] is 13.2 µM (inactive); in experiment [10], 15 µM (inactive); in experiment [11] it was 8.43 µM (inactive); in experiment [12], 13.4 µM (inactive); in experiment [13] it was 18.5 µM (inactive); in experiment [14], 13.7 µM (inactive). The GI50 is 18.7 µM (inactive) in experiment [15], 14.2 µM (inactive) in experiment [16], 12 µM (inactive) in [17] and 18.5 µM (inactive) in experiment [18].
As to `Cn1ccc(C(=O)NCCOCCNC(=O)c2ccn(C)c(=O)c2O)c(O)c1=O`, the GI50 in experiment [1], in experiment [2], in experiment [3], in [5], in experiment [6] and in experiment [8] was > 100 µM (inactive) throughout. Further, the GI50 in experiment [9], in experiment [10], in [12], in experiment [14], in experiment [19] and in [15] was > 100 µM (inactive) each time. For the same molecule, the GI50 in [16], in experiment [17] and in [18] was > 100 µM (inactive) throughout.
For the molecule `CN1CCN(CCCN2c3ccccc3Sc3ccc(C(F)(F)F)cc32)CC1`, the GI50 in [1] was 11.1 µM (inactive); in experiment [2], 4.95 µM (inactive); in [4], 4.31 µM (inactive); in [6], 8.81 µM (inactive); in experiment [8] it was 2.73 µM (inactive); in [10], 12.6 µM (inactive). Moreover, the GI50 was 4.58 µM (inactive) in [12]; 11.3 µM (inactive) in [13]; 6.1 µM (inactive) in [14]; 12.1 µM (inactive) in [19]; 8.22 µM (inactive) in experiment [15]; 10.2 µM (inactive) in [18].
Regarding `CC1=C/C(O)CC(=O)Cc2nc(co2)C(=O)N2CCC=C2C(=O)OC(C(C)C)C(C)/C=C\C(=O)NC/C=C\1` (stereo not given), the GI50 in experiment [1] is 17.1 µM (inactive); in [2], 35.8 µM (inactive); in experiment [3] it was 31.6 µM (inactive); in experiment [4], 11.3 µM (inactive); in [5], 12.9 µM (inactive); in experiment [6] it was 57.9 µM (inactive). Besides, the GI50 was 31 µM (inactive) in experiment [7]; 17.2 µM (inactive) in experiment [8]; 0.176 µM (active) in experiment [9]; 23.6 µM (inactive) in [10]; 15 µM (inactive) in experiment [11]; 27.1 µM (inactive) in experiment [12]. Besides, the GI50 in experiment [13] was 31.5 µM (inactive); in [14] it was 12.2 µM (inactive); in [19] it was 20.5 µM (inactive); in [16] it was 19.1 µM (inactive); in [17], 18.1 µM (inactive); in experiment [18] it was 29.9 µM (inactive).
